Test results: ChEMBL document CHEMBL3882729, “Receptor-type kinase modulators and methods of use” (2009)

Tests used:
[1] = molecular target: Ephrin type-A receptor 2 (Homo sapiens, UniProt P29317); assay: Inhibition of recombinant human N-terminal His6-tagged EphA2 (N598 to R890 residues) expressed in baculovirus using poly-EY as substrate after 180 mins by luciferase coupled chemiluminescence assay
[2] = molecular target: T1, Ephrin type-B receptor 4 (Homo sapiens, UniProt P54760); assay: Inhibition of recombinant human N-terminal His6-tagged EphB4 kinase domain (E605 to E890 residues) expressed in baculovirus using poly-AEKY as substrate after 150 mins in presence of gamma33P-ATP by liquid scintillation spectrometry
T1 sequence (P54760 whole entry): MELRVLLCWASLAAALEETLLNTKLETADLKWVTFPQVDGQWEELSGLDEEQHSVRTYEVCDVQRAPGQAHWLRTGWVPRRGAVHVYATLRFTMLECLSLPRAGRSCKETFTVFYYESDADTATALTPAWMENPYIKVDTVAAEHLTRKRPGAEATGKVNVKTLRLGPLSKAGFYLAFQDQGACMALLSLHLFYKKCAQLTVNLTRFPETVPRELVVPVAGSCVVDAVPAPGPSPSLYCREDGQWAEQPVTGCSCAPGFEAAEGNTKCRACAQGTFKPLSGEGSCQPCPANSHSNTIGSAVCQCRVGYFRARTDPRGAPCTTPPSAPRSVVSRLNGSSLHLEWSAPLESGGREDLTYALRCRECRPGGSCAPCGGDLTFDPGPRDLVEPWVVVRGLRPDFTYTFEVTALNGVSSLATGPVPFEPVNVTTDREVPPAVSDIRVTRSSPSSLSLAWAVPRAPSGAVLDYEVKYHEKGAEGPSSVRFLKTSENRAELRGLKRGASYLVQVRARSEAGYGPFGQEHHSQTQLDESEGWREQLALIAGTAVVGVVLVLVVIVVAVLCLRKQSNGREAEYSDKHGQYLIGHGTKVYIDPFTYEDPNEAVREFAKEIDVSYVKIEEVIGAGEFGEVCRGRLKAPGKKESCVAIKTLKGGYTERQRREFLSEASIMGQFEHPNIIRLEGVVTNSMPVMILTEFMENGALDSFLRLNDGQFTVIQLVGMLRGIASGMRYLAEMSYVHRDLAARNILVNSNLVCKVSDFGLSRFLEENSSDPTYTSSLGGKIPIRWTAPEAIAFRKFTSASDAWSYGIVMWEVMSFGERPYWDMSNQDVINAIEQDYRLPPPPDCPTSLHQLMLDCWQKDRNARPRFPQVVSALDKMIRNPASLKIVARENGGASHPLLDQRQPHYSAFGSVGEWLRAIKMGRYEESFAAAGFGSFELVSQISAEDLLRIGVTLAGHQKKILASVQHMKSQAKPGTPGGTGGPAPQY

[3] = molecular target: Receptor tyrosine-protein kinase erbB-2 (Homo sapiens, UniProt P04626); assay: Inhibition of recombinant human N-terminal GST His6-tagged thrombin cleavage site-fused ErbB2 kinase domain (Q679 to V1255 residues) expressed in baculovirus infected insect Sf9 cells using biotinylated poly-EY as substrate after 60 mins by alphascreen assay
[4] = molecular target: Vascular endothelial growth factor receptor 2 (Homo sapiens, UniProt P35968); assay: Inhibition of recombinant human N-terminal GST-fused KDR (D807 to V1356 residues) expressed in baculovirus infected […] insect Sf9 cells using poly-EY as substrate after 240 mins by luciferase coupled chemiluminescence assay
[5] = molecular target: Vascular endothelial growth factor receptor 1 (Homo sapiens, UniProt P17948); assay: Inhibition of recombinant human N-terminal GST-tagged factor 10a cleavage site-fused Flt1 (K784 to I1338 residues) expressed in baculovirus infected insect Sf9 cells using poly-EY as substrate after 120 mins in presence of gamma33P-ATP by liquid scintillation spectrometry
Sequence of Vascular endothelial growth factor receptor 1 (P17948 whole entry, the tested form may be a part): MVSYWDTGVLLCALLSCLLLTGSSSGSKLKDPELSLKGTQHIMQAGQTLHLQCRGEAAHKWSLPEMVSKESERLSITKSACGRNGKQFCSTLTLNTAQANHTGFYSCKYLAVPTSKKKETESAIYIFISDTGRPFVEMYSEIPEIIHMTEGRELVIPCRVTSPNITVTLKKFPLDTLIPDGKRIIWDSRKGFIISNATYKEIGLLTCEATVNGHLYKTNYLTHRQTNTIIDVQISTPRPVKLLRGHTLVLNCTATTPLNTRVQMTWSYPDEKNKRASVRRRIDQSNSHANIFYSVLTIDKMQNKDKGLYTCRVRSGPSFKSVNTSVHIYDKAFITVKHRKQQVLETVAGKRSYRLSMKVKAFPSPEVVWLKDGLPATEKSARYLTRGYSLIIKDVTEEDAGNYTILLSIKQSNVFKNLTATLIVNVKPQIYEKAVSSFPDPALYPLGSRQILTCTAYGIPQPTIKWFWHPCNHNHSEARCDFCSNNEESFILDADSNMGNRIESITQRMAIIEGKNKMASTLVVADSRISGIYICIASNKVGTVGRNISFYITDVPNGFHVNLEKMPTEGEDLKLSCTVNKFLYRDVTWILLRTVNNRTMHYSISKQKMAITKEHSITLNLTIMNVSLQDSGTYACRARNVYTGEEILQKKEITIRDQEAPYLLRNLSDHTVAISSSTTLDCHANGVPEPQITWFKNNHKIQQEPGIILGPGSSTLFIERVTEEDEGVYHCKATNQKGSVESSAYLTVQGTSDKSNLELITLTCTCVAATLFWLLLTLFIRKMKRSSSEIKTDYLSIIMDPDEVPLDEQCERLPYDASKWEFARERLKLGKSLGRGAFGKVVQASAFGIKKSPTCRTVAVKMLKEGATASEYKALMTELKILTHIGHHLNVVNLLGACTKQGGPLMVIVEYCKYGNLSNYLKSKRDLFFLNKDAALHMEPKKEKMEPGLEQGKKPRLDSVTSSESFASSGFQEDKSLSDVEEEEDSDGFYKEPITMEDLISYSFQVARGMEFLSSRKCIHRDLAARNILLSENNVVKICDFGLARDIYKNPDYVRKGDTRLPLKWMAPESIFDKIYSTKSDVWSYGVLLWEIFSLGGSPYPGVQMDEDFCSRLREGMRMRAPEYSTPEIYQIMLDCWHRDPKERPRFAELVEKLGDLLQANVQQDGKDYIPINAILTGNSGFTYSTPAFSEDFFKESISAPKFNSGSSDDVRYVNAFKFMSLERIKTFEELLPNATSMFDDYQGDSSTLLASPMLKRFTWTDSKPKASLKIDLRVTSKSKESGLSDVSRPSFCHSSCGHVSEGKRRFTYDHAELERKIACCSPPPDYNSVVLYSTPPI

Sequence of Vascular endothelial growth factor receptor 2 (P35968 whole entry, the tested form may be a part): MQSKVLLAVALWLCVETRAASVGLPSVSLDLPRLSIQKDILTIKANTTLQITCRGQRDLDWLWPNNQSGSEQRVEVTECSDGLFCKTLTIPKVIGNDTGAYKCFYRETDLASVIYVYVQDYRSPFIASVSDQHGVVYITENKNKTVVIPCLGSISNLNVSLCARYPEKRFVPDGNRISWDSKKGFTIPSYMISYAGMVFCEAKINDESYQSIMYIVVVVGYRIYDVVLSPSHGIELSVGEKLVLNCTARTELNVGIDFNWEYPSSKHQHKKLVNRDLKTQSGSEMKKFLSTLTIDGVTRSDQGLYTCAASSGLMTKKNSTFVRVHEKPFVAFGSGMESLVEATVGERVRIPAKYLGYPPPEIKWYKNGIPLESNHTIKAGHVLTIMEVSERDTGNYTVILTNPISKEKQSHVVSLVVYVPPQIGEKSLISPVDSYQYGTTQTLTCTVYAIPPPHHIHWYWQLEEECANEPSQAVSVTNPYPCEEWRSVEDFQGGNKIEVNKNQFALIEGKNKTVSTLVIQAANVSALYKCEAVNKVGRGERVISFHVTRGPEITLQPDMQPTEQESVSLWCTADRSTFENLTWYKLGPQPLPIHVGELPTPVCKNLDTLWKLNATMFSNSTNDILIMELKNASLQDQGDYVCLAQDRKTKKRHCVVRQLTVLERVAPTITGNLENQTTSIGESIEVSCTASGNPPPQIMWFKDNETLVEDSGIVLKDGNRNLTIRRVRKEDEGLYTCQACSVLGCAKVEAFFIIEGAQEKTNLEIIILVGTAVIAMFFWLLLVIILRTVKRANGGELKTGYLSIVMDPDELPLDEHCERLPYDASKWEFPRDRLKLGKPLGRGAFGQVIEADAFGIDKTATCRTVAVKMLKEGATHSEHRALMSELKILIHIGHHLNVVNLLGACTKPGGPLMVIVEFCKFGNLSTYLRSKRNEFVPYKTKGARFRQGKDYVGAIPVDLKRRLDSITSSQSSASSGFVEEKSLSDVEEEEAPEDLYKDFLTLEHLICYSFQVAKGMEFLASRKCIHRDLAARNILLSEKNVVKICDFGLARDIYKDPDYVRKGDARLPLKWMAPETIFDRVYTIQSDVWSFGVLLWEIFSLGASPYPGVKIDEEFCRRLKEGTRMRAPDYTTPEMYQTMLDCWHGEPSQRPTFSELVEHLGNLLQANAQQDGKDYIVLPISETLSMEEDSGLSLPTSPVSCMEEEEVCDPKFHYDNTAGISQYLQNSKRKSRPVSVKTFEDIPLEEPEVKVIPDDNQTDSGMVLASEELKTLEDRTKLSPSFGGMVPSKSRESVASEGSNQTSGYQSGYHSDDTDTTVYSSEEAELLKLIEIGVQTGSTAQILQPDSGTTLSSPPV
Sequence of Ephrin type-A receptor 2 (P29317 whole entry, the tested form may be a part): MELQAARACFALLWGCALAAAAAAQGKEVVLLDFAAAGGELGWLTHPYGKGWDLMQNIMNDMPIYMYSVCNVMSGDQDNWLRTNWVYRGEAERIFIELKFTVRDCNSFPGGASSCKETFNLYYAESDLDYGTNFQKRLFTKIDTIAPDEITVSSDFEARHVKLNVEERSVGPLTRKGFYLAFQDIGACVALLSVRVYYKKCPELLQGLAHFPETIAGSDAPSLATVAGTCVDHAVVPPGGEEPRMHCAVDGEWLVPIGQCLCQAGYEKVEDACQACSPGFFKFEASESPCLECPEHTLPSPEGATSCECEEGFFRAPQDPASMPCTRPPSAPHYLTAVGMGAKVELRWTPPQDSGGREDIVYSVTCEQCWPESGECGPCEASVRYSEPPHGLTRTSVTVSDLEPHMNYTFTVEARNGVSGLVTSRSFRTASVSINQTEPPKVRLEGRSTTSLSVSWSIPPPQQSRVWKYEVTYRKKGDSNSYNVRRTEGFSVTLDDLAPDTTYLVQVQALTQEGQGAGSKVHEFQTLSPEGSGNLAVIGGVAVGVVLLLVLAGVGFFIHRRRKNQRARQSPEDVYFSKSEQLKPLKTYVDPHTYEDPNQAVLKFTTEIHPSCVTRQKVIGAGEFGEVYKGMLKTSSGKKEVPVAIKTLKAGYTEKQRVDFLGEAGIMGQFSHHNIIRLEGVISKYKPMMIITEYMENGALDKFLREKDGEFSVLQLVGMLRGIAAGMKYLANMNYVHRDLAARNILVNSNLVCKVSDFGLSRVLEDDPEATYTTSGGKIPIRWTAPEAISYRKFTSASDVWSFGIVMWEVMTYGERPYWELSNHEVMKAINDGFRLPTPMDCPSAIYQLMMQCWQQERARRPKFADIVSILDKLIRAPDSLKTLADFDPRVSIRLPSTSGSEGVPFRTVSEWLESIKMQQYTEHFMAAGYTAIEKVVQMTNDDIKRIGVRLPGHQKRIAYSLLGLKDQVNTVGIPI
Sequence of Receptor tyrosine-protein kinase erbB-2 (P04626 whole entry, the tested form may be a part): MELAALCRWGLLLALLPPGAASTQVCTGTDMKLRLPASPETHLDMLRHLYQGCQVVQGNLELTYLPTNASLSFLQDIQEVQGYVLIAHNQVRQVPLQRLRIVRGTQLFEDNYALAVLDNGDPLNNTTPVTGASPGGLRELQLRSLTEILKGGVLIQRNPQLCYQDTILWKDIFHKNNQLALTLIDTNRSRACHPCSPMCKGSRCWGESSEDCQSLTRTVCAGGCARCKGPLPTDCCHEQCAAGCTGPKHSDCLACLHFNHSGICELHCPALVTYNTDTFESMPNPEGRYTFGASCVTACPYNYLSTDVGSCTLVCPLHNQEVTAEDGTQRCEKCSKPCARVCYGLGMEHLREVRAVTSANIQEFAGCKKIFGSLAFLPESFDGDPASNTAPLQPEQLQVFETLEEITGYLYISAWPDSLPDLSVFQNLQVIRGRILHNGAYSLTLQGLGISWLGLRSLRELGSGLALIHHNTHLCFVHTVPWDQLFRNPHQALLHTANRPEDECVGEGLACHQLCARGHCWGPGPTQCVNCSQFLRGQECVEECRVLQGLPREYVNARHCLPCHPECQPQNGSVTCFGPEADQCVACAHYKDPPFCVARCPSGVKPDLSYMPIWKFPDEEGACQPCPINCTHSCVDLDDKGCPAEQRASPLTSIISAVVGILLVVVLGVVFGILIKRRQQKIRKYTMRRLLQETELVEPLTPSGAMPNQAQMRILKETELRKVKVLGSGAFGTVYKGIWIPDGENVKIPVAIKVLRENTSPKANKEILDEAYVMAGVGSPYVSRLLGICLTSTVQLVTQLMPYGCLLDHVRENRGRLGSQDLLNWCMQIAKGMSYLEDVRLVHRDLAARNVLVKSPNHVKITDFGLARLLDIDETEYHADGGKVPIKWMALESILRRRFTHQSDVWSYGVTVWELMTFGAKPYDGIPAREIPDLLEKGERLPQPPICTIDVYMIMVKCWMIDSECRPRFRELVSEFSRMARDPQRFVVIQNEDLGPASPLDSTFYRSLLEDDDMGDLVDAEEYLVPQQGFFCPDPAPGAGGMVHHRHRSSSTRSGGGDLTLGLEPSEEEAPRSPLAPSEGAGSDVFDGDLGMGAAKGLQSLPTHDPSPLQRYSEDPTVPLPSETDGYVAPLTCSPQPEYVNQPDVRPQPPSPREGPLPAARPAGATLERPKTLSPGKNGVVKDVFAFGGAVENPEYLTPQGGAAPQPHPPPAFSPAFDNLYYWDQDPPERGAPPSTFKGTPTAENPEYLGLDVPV

For `COc1cc2c(Nc3ccc(Br)c(Cl)c3F)ncnc2cc1OC[C@@H]1CN2CCOC[C@H]2CO1`, the IC50 [1] was < 50 nM, the IC50 [2] was < 50 nM and the IC50 [3] was < 50 nM. For the same molecule, the IC50 [4] was < 50 nM and the IC50 [5] was < 50 nM.

`COc1cc2c(Nc3ccc(Cl)c(Cl)c3)ncnc2cc1OC[C@H]1CN2CCC[C@H]2CO1` was tested, and the IC50 [1] was < 50 nM, the IC50 [2] was < 50 nM and the IC50 [3] was < 50 nM. The IC50 [4] was < 50 nM and the IC50 [5] was 50 to 1000 nM.

`COc1cc2c(Nc3ccc(Br)c(Cl)c3F)ncnc2cc1OC[C@@H]1CN2CCC[C@H]2C(=O)N1` was tested, and the IC50 [1] was 50 to 1000 nM, the IC50 [2] was < 50 nM and the IC50 [3] was 1000 to 20000 nM. For the same molecule, the IC50 [4] was < 50 nM and the IC50 [5] was 50 to 1000 nM.

`COc1cc2c(Nc3ccc(Br)c(Cl)c3F)ncnc2cc1OC[C@@H]1CN2CCC[C@H]2CO1` was tested, and the IC50 [1] was < 50 nM, the IC50 [2] was < 50 nM and the IC50 [3] was 50 to 1000 nM. For the same molecule, the IC50 [4] was < 50 nM and the IC50 [5] was < 50 nM.

`COc1cc2c(Nc3ccc(F)c(Cl)c3F)ncnc2cc1OC[C@H]1CN2CCOC[C@H]2CO1` showed an IC50 [1] of 50 to 1000 nM, an IC50 [2] of 50 to 1000 nM and an IC50 [3] of 50 to 1000 nM. The IC50 [4] was 50 to 1000 nM and the IC50 [5] was 50 to 1000 nM.

In the case of `COc1cc2c(Nc3cc(Cl)c(Cl)cc3F)ncnc2cc1OC[C@@H]1CN2CCC[C@H]2CO1`, the IC50 [1] is reported as < 50 nM, the IC50 [2] is reported as < 50 nM and the IC50 [3] is reported as 50 to 1000 nM. For the same molecule, the IC50 [4] was < 50 nM and the IC50 [5] was 50 to 1000 nM.

`COc1cc2c(Nc3ccc(Cl)c(Cl)c3)ncnc2cc1OC[C@@H]1CN2CCC[C@@H]2CO1` was tested, and the IC50 [1] was < 50 nM, the IC50 [2] was < 50 nM and the IC50 [3] was < 50 nM. For the same molecule, the IC50 [4] was < 50 nM and the IC50 [5] was 50 to 1000 nM.

In the case of `COc1cc2c(Nc3ccc(Cl)c(Cl)c3)ncnc2cc1OCC1CN2CSC[C@H]2CO1` (stereo partly specified), the IC50 [1] is reported as 50 to 1000 nM, the IC50 [4] is reported as 50 to 1000 nM and the IC50 [5] is reported as 50 to 1000 nM.

In the case of `COc1cc2c(Nc3ccc(Cl)c(Cl)c3F)ncnc2cc1OC[C@@H]1CN2CCOC[C@H]2CO1`, the IC50 [1] is reported as < 50 nM, the IC50 [2] is reported as < 50 nM and the IC50 [3] is reported as < 50 nM. For the same molecule, the IC50 [4] was < 50 nM and the IC50 [5] was < 50 nM.

In the case of `COc1cc2c(Nc3ccc(Cl)c(Cl)c3F)ncnc2cc1OC[C@@H]1CN2CCC[C@H]2C(=O)N1`, the IC50 [1] is reported as 50 to 1000 nM, the IC50 [4] is reported as < 50 nM and the IC50 [5] is reported as 50 to 1000 nM.

In the case of `COc1cc2c(Nc3ccc(Br)c(Cl)c3Cl)ncnc2cc1OC[C@@H]1CN2CCOC[C@H]2CO1`, the IC50 [1] is reported as 50 to 1000 nM, the IC50 [2] is reported as < 50 nM and the IC50 [3] is reported as 1000 to 20000 nM. It also gave an IC50 [4] of 50 to 1000 nM and an IC50 [5] of 50 to 1000 nM.

In the case of `COc1cc2c(Nc3ccc(F)c(Cl)c3F)ncnc2cc1OC[C@@H]1CN2CCC[C@H]2CO1`, the IC50 [1] is reported as < 50 nM, the IC50 [2] is reported as < 50 nM and the IC50 [3] is reported as 50 to 1000 nM. The IC50 [4] was 50 to 1000 nM and the IC50 [5] was 50 to 1000 nM.

For `COc1cc2c(Nc3cc(Cl)c(Br)cc3F)ncnc2cc1OC[C@H]1CN2CCOC[C@H]2CO1`, the IC50 [1] was 50 to 1000 nM, the IC50 [2] was 50 to 1000 nM and the IC50 [3] was 50 to 1000 nM. The IC50 [4] was 50 to 1000 nM and the IC50 [5] was 50 to 1000 nM.

`COc1cc2c(Nc3cc(Cl)c(Cl)cc3F)ncnc2cc1OC[C@H]1CN2CCOC[C@H]2CO1` was tested, and the IC50 [1] was 50 to 1000 nM, the IC50 [2] was 50 to 1000 nM and the IC50 [3] was 50 to 1000 nM. The IC50 [4] was 50 to 1000 nM and the IC50 [5] was 50 to 1000 nM.

In the case of `COc1cc2c(Nc3ccc(Cl)c(Cl)c3F)ncnc2cc1OC[C@H]1CN2CCOC[C@H]2CO1`, the IC50 [1] is reported as 50 to 1000 nM, the IC50 [2] is reported as < 50 nM and the IC50 [3] is reported as 50 to 1000 nM. For the same molecule, the IC50 [4] was < 50 nM and the IC50 [5] was 50 to 1000 nM.

With `COc1cc2c(Nc3cc(Cl)c(Br)cc3F)ncnc2cc1OC[C@@H]1CN2CCOC[C@H]2CO1` the IC50 [1] was 50 to 1000 nM, the IC50 [2] was < 50 nM and the IC50 [3] was 50 to 1000 nM. The IC50 [4] was 50 to 1000 nM and the IC50 [5] was 50 to 1000 nM.

`COc1cc2c(Nc3cc(Cl)c(Br)cc3F)ncnc2cc1OC[C@@H]1CN2CCC[C@H]2CO1` was tested, and the IC50 [1] was < 50 nM, the IC50 [2] was < 50 nM and the IC50 [3] was 50 to 1000 nM. For the same molecule, the IC50 [4] was < 50 nM and the IC50 [5] was 50 to 1000 nM.

`COc1cc2c(Nc3cc(Cl)c(Cl)cc3F)ncnc2cc1OC[C@@H]1CN2CCOC[C@H]2CO1` was tested, and the IC50 [1] was 50 to 1000 nM, the IC50 [2] was < 50 nM and the IC50 [3] was 50 to 1000 nM. The IC50 [4] was 50 to 1000 nM and the IC50 [5] was 50 to 1000 nM.

`COc1cc2c(Nc3ccc(Cl)c(Cl)c3)ncnc2cc1OC[C@H]1CN2CCC[C@@H]2CO1` was tested, and the IC50 [1] was 50 to 1000 nM, the IC50 [2] was < 50 nM and the IC50 [3] was 50 to 1000 nM. For the same molecule, the IC50 [4] was < 50 nM and the IC50 [5] was 50 to 1000 nM.
